Source: US20110262365A1 (priority 2008, published 2011)

Tested on: skin of the subject
Assay: Intradermal skin test for hypersensitivity to female reproductive hormones, case reports
Type: in vivo, human
Settings: for Skin test result, Case 2: person one; for Skin test result, Case 6 / Skin test result, Case 7 / Skin test result, Case 4 / Skin test result, Case 1 / Skin test result, Case 5: person; for Skin test result, Case 6: menopausal syndrome; for Skin test result, Case 6 / Skin test result, Case 7: severe hot flashes; for Skin test result, Case 7: menopause; for Skin test result, Case 4: recurrent habitual abortions and severe PMS; for Skin test result, Case 1: severe premenstrual headaches, insomnia, acne; for Skin test result, Case 5: premenopausal syndrome, severe hot flashes and night sweats
Method: The skin test included the use of three fractions of estrogen (E1, E2 and E3) and progesterone (P), along with suitable controls. Each hormone solution was intradermally administered at a volume of 20-160 μl.
Skin test method using estriol, estrone, estradiol and/or progesterone and monitoring the immediate, late and delayed immuno-reaction to the injected hormones
1. The hormones (Table 1) diluted in solvents (Table 2) and controls (Table 3) in the above described dosages were administered intradermally into subjects.
2. Timing of intradermal administration and evaluation of the skin reaction was dependent on the tested subject.
(i) In case of fertile woman: Intradermal administration of the hormones/controls initiated at the luteal phase of menstrual cycle;
Tracking (evaluation of skin reaction) was after 20 minutes, after 48 hours and daily during the next 30 day (or a complete menstrual cycle).
(ii) Other Cases (non-fertile subjects): Intradermal administration of the hormones/controls initiated at any time;
Tracking (evaluation of skin reaction) was after 20 minutes, after 48 hours and daily during the next 7 day.
3. Measurement of wheal diameter—The wheal is formed on the skin in response to the intradermal administration of the hormone. Since the wheal responses are rarely regular or circular the wheal diameter is calculated using the following formula I.
wheal diameter=(D+d)/2 Formula I: […]
where D is the maximum diameter and d is perpendicular diameter.
4. Comparison with the controls was as follows:
(i) In case of a negative reaction to histamine (wheal diameter smaller than 5 mm), the result indicates Familial Dysautonomia disease (the subject is advised to seek other treatment);
(ii) In case of a positive reaction to saline (wheal diameter equals or larger than 5 mm), the test should be repeated;
(iv) In case of a similar or smaller reaction (wheal diameter) as compared to solvent reaction, there is no sensitivity to the tested hormone and desensitization is optional;
(v) Exception—In case the skin reaction (wheal diameter) is larger than 20 mm, the subject should not be treated and is referred to testing of cancer, systemic auto-immune diseases and other serous diseases.
Following is a description of several cases of subjects which were diagnosed and treated according to the method of some embodiments of the invention. The concentrations of hormones used in the description of the following cases 1-7 and in Table 9 below were as follow:
E1 (Estrone)—3 mM (millimole/Liter); 0.811 grams/liter;
E2 —(estradiol)—1 mM (millimole/Liter); 0.3565 grams/liter;
E3 (estriol)—3 mM (millimole/Liter); 0.86514 grams/liter;
P (progesterone)—1 mM (millimole/Liter); 0.3144 grams/liter;

[1] = habitual abortions and severe PMS

| Skin test result, Case 4 | Compound | Skin test result, Case 2 [1] | Skin test result, Case 3 (person two, habitual abortions and severe PMS) | Skin test result, Case 6 | Skin test result, Case 7 | Skin test result, Case 1 (BMI=31) | Skin test result, Case 5 | Skin test result, Case 1 (BMI=31, listed as Progesterone) |
| --- | --- | --- | --- | --- | --- | --- | --- | --- |
| delayed-type hypersensitivity reaction | C[C@]12CC[C@@H]3c4ccc(O)cc4CC[C@H]3[C@@H]1C[C@@H](O)[C@@H]2O [estriol, Estriol] | – | – | Hypersensitivity (delayed type after 48 hours and 5 days) | – | delayed-type hypersensitivity reaction | delayed-type hypersensitivity reaction (after 48 hours) | – |
| delayed-type hypersensitivity reaction | CC(=O)[C@H]1CC[C@H]2[C@@H]3CCC4=CC(=O)CC[C@]4(C)[C@H]3CC[C@]12C [progesterone, Progesterone] | positive delayed-type hypersensitivity reaction | – | – | delayed-type (after 48 hours and 6 days) hypersensitivity reaction | – | delayed-type hypersensitivity reaction (after 48 hours) | delayed-type hypersensitivity reaction to estriol and estradiol, higher than to Progesterone |

| Compound | Skin test result, Case 4 | Skin test result, Case 2 [1] | Skin test result, Case 3 (person two, habitual abortions and severe PMS) | Skin test result, Case 6 | Skin test result, Case 7 | Skin test result, Case 1 (BMI=31) | Skin test result, Case 5 | Skin test result, Case 1 (BMI=31, listed as Progesterone) |
| --- | --- | --- | --- | --- | --- | --- | --- | --- |
| 17 beta Estradiol Valerate | delayed-type hypersensitivity reaction | positive delayed-type hypersensitivity reaction | delayed-type hypersensitivity reaction | Hypersensitivity (delayed type after 48 hours and 5 days) | delayed-type (after 48 hours and 6 days) hypersensitivity reaction | delayed-type hypersensitivity reaction | – | – |
